Experimental findings from patent US20250197420A1, “MACROCYCLIC COMPOUNDS, COMPOSITIONS, AND METHODS OF USING THEREOF” (Sionna Therapeutics Inc., priority 2022, published 2025) are described below.

For data set [1] the following is noted: amide bond; 19-membered ring; with chain assembly.
For data set [2], the system named is Primary human bronchial epithelial cells from a ΔF508 homozygous CF donor (CF-HBE cells). The data set can be described thus: TECC24 recording of CFTR-mediated transepithelial chloride transport, AUC fold over benchmark VX-809 @10 μM. Particulars: 48 hours incubation, AUC of forskolin-stimulated IEQ. The class given is cell-based. In a few lines:
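CF-HBE cells on inserts were treated with compound for 48 h at 36.5 °C, then recorded in current-clamp with benzamil 10 μM, forskolin 10 μM, and finally CFTR inhibitor-172 20 μM in pH 7.4 Hepes saline. Equivalent Cl− current AUC between forskolin and inhibitor addition is expressed as a ratio to VX-809 AUC: A <3, B 3–6, C 6–20.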

The target of data set [3] is T1, Purified recombinant NBD1 (Homo sapiens, UniProt P13569).
T1 construct: Purified recombinant NBD1 was produced using previously described methods; made in house
T1 sequence (P13569 423-646 limits assumed): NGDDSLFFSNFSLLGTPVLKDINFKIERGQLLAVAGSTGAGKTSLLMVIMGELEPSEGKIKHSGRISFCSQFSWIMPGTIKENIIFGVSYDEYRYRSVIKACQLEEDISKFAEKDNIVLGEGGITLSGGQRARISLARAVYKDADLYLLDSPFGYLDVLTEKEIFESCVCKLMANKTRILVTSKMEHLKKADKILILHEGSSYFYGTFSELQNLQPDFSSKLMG
The data set can be described thus: Aggregation analysis using differential static light scattering (DSLS): thermal stability of NBD1. The format is binding. Particulars: NBD1 0.2 mg/ml; Tagg of compound well minus average Tagg of DMSO control wells. In a few lines:
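Recombinant NBD1 at 0.2 mg/ml in Tris/NaCl/MgCl2 buffer with 2 mM ATP, 2 mM DTT, 1% glycerol, pH 7.6, was incubated with compound and heated at 1 °C/min to 70 °C while static light scattering was monitored. Tagg was taken from the curve inflection point and reported as ΔTagg relative to DMSO controls.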

For `Cc1ccc(S(=O)(=O)n2ccc3c4c(c(F)cc32)Oc2ccnc(c2)-c2nc(nn2C)[C@@](C)(c2cccc(I)c2)CCCCC(C)(C)CN(C)C(=O)C4)cc1`, in data set [1], the ring closure, isolated yield amounted to 35%.

`CC1(c2cccc(CCC(=O)O)c2)CCCCCC(=O)NCC(O)Cc2c(c(F)cc3[nH]ccc23)Oc2ccc(F)c(c2)-c2ncc1[nH]2` (centres unmarked) [Compound 110, 3-[3-(24,30-Difluoro-15-hydroxy-6-methyl-12-oxo-26-oxa-3,13,21,32-tetrazapentacyclo[25.3.1.12,5.017,25.018,22]dotriaconta-1(31),2,4,17,19,22,24,27,29-nonaen-6-yl)phenyl]propanoic acid]: the “TECC (test agent AUC divided by VX-809 AUC)” value in data set [2] was “B (a value between 3 and 6 is marked “B”)”. Besides, the “DSLS (ΔTagg)” value in data set [3] is “C (a value greater than 10 °C and less than or equal to 25 °C is marked “C”)”.

`CC1(c2cccc(CCC(=O)O)c2)CCCCCC(=O)NCC(=O)Cc2c(c(F)cc3[nH]ccc23)Oc2ccc(F)c(c2)-c2ncc1[nH]2` (centres unmarked) [Compound 111, 3-[3-(24,30-Difluoro-6-methyl-12,15-dioxo-26-oxa-3,13,21,32-tetrazapentacyclo[25.3.1.12,5.017,25.018,22]dotriaconta-1(31),2,4,17,19,22,24,27,29-nonaen-6-yl)phenyl]propanoic acid]: the “TECC (test agent AUC divided by VX-809 AUC)” value in data set [2] was “C (a value between 6 and 20 is marked “C”)”. Further, the “DSLS (ΔTagg)” value in data set [3] is “C (a value greater than 10 °C and less than or equal to 25 °C is marked “C”)”.

Take `CN1CC(O)CCCCCC(C)(c2cccc(CCC(=O)O)c2)c2cnc([nH]2)-c2cc(ccc2F)Oc2c(F)cc3[nH]ccc3c2CC1=O` (centres unmarked) [Compound 112, 3-[3-(24,30-Difluoro-12-hydroxy-6,14-dimethyl-15-oxo-26-oxa-3,14,21,32-tetrazapentacyclo[25.3.1.12,5.017,25.018,22]dotriaconta-1(30),2,4,17(25),18(22),19,23,27(31),28-nonaen-6-yl)phenyl]propanoic acid]: the “TECC (test agent AUC divided by VX-809 AUC)” value in data set [2] is “B (a value between 3 and 6 is marked “B”)”. The “DSLS (ΔTagg)” value in data set [3] was “C (a value greater than 10 °C and less than or equal to 25 °C is marked “C”)”.

For `CN1CC(=O)CCCCCC(C)(c2cccc(CCC(=O)O)c2)c2cnc([nH]2)-c2cc(ccc2F)Oc2c(F)cc3[nH]ccc3c2CC1=O` (centres unmarked) [Compound 113, 3-[3-(24,30-Difluoro-6,14-dimethyl-12,15-dioxo-26-oxa-3,14,21,32-tetrazapentacyclo[25.3.1.12,5.017,25.018,22]dotriaconta-1(30),2,4,17(25),18(22),19,23,27(31),28-nonaen-6-yl)phenyl]propanoic acid], in data set [2], the “TECC (test agent AUC divided by VX-809 AUC)” value was “A (a TECC value less than 3 is marked “A”)”. Besides, in data set [3], the “DSLS (ΔTagg)” value was “C (a value greater than 10 °C and less than or equal to 25 °C is marked “C”)”.

`CC(Cc1cccc(C2(C)CCCCS(=O)(=O)NC(=O)CCc3c(c(F)cc4[nH]ccc34)Oc3ccc(F)c(c3)-c3nc2nn3C)c1)C(=O)O` (centres unmarked) [Compound 114, 3-[3-(23,29-Difluoro-3,6-dimethyl-11,11,13-trioxo-25-oxa-11λ6-thia-3,4,12,20,31-pentazapentacyclo[24.3.1.12,5.016,24.017,21]hentriaconta-1(30),2(31),4,16,18,21,23,26,28-nonaen-6-yl)phenyl]-2-methyl-propanoic acid]: in data set [2], the “TECC (test agent AUC divided by VX-809 AUC)” value is recorded as “A (a TECC value less than 3 is marked “A”)”. Besides, the “DSLS (ΔTagg)” value in data set [3] is “C (a value greater than 10 °C and less than or equal to 25 °C is marked “C”)”.

In the case of `Cn1nc2nc1-c1cc(ccc1F)Oc1c(F)cc3[nH]ccc3c1CCC(=O)NS(=O)(=O)CCCCC2(C)c1ccccc1` (centres unmarked) [Compound 115], the “TECC (test agent AUC divided by VX-809 AUC)” value in data set [2] is listed as “A (a TECC value less than 3 is marked “A”)”. For the same compound, the “DSLS (ΔTagg)” value in data set [3] was “C (a value greater than 10 °C and less than or equal to 25 °C is marked “C”)”.

Regarding `C[C@@H](Cc1cccc(C2(C)CCCC(C)(C)NS(=O)(=O)CCc3c(c(F)cc4[nH]ccc34)Oc3ccc(F)c(c3)-c3nc2nn3C)c1)C(=O)O` (stereo partly drawn) [Compound 116, (2S)-3-[3-(22,28-difluoro-3,6,10,10-tetramethyl-12,12-dioxo-24-oxa-12λ6-thia-3,4,11,19,30-pentazapentacyclo[23.3.1.12,5.015,23.016,20]triaconta-1(29),2(30),4,15,17,20,22,25,27-nonaen-6-yl)phenyl]-2-methyl-propanoic acid], the “TECC (test agent AUC divided by VX-809 AUC)” value in data set [2] is “B (a value between 3 and 6 is marked “B”)”. In addition, in data set [3], the “DSLS (ΔTagg)” value is “C (a value greater than 10 °C and less than or equal to 25 °C is marked “C”)”.

In the case of `C[C@@H](Cc1cccc([C@@]2(C)CCCC(C)(C)CN(C)C(=O)CCc3c(c(F)cc4[nH]ccc34)Oc3ccnc(c3)-c3nc2nn3C)c1)C(=O)O` [Compound 118, (2S)-3-[3-[(6R)-23-fluoro-3,6,10,10,12-pentamethyl-13-oxo-25-oxa-3,4,12,20,29,31-hexazapentacyclo[24.3.1.12,5.016,24.017,21]hentriaconta-1(30),2(31),4,16,18,21,23,26,28-nonaen-6-yl]phenyl]-2-methyl-propanoic acid], the “TECC (test agent AUC divided by VX-809 AUC)” value in data set [2] was “B (a value between 3 and 6 is marked “B”)”. Besides, in data set [3], the “DSLS (ΔTagg)” value was “C (a value greater than 10 °C and less than or equal to 25 °C is marked “C”)”.

For the compound `C[C@H](Cc1cccc([C@@]2(C)CCCC(C)(C)CN(C)C(=O)CCc3c(c(F)cc4[nH]ccc34)Oc3ccnc(c3)-c3nc2nn3C)c1)C(=O)O` [Compound 119, (2R)-3-[3-[(6R)-23-fluoro-3,6,10,10,12-pentamethyl-13-oxo-25-oxa-3,4,12,20,29,31-hexazapentacyclo[24.3.1.12,5.016,24.017,21]hentriaconta-1(30),2(31),4,16,18,21,23,26,28-nonaen-6-yl]phenyl]-2-methyl-propanoic acid], the “TECC (test agent AUC divided by VX-809 AUC)” value in data set [2] is “B (a value between 3 and 6 is marked “B”)”. The “DSLS (ΔTagg)” value in data set [3] is “B (a value above 5 °C and less than or equal to 10 °C is marked “B”)”.

Take `CN1CC(C)(C)CCC[C@](C)(c2cccc(CC(C)(C)C(=O)O)c2)c2nc(n(C)n2)-c2cc(ccn2)Oc2c(F)cc3[nH]ccc3c2CCC1=O` [Compound 120, 3-[3-[(6R)-23-fluoro-3,6,10,10,12-pentamethyl-13-oxo-25-oxa-3,4,12,20,29,31-hexazapentacyclo[24.3.1.12,5.016,24.017,21]hentriaconta-1(30),2(31),4,16,18,21,23,26,28-nonaen-6-yl]phenyl]-2,2-dimethyl-propanoic acid]: in data set [2], the “TECC (test agent AUC divided by VX-809 AUC)” value is on record as “A (a TECC value less than 3 is marked “A”)”. The “DSLS (ΔTagg)” value in data set [3] is “B (a value above 5 °C and less than or equal to 10 °C is marked “B”)”.

On to `C[C@@H](Cc1cccc([C@@]2(C)CCCCC(C)(C)CN(C)C(=O)Cc3c(c(F)cc4[nH]ccc34)Oc3ccnc(c3)-c3nc2nn3C)c1)C(=O)O` [Compound 121, (2S)-3-[3-[(6R)-23-fluoro-3,6,11,11,13-pentamethyl-14-oxo-25-oxa-3,4,13,20,29,31-hexazapentacyclo[24.3.1.12,5.016,24.017,21]hentriaconta-1(30),2(31),4,16,18,21,23,26,28-nonaen-6-yl]phenyl]-2-methyl-propanoic acid], for which, in data set [2], the “TECC (test agent AUC divided by VX-809 AUC)” value was “A (a TECC value less than 3 is marked “A”)”. Further, in data set [3], the “DSLS (ΔTagg)” value was “C (a value greater than 10 °C and less than or equal to 25 °C is marked “C”)”.

With `C[C@H](Cc1cccc([C@@]2(C)CCCCC(C)(C)CN(C)C(=O)Cc3c(c(F)cc4[nH]ccc34)Oc3ccnc(c3)-c3nc2nn3C)c1)C(=O)O` [Compound 122, (2R)-3-[3-[(6R)-23-fluoro-3,6,11,11,13-pentamethyl-14-oxo-25-oxa-3,4,13,20,29,31-hexazapentacyclo[24.3.1.12,5.016,24.017,21]hentriaconta-1(30),2(31),4,16,18,21,23,26,28-nonaen-6-yl]phenyl]-2-methyl-propanoic acid], the “TECC (test agent AUC divided by VX-809 AUC)” value in data set [2] is “A (a TECC value less than 3 is marked “A”)”. Further, the “DSLS (ΔTagg)” value in data set [3] is “B (a value above 5 °C and less than or equal to 10 °C is marked “B”)”.

Take `CN1CC(C)(C)CCCC[C@](C)(c2cccc(CCC(=O)O)c2)c2nc(n(C)n2)-c2cc(ccn2)Oc2c(F)cc3[nH]ccc3c2CC1=O` [Compound 123, 3-[3-[(6R)-23-Fluoro-3,6,11,11,13-pentamethyl-14-oxo-25-oxa-3,4,13,20,29,31-hexazapentacyclo[24.3.1.12,5.016,24.017,21]hentriaconta-1(30),2(31),4,16,18,21,23,26,28-nonaen-6-yl]phenyl]propanoic acid]: the “TECC (test agent AUC divided by VX-809 AUC)” value in data set [2] is reported as “A (a TECC value less than 3 is marked “A”)”. In data set [3], the “DSLS (ΔTagg)” value is “C (a value greater than 10 °C and less than or equal to 25 °C is marked “C”)”.

For `CN1CC(C)(C)CCCC[C@](C)(c2cccc(CC(C)(C)C(=O)O)c2)c2nc(n(C)n2)-c2cc(ccn2)Oc2c(F)cc3[nH]ccc3c2CC1=O` [Compound 124, 3-[3-[(6R)-23-fluoro-3,6,11,11,13-pentamethyl-14-oxo-25-oxa-3,4,13,20,29,31-hexazapentacyclo[24.3.1.12,5.016,24.017,21]hentriaconta-1(30),2(31),4,16,18,21,23,26,28-nonaen-6-yl]phenyl]-2,2-dimethyl-propanoic acid], the “TECC (test agent AUC divided by VX-809 AUC)” value in data set [2] is given as “A (a TECC value less than 3 is marked “A”)”. For the same compound, the “DSLS (ΔTagg)” value in data set [3] is “A (an ΔTagg value less than or equal to 5 °C is marked “A”)”.
